Consider two molecules from patent publication US20220135539A1, “BIARYL AMIDE COMPOUNDS, PREPARATION METHODS AND MEDICAL APPLICATIONS THEREOF” (Eternity Bioscience Inc., priority 2020, published 2022).

The structures appear in SMILES notation.

One test has as its target human recombinant cRAF (Homo sapiens, UniProt P04049). Description: cRAF Inhibition Assay (TR-FRET). Type of test: biochemical. How it is done: (§1) Activity of human recombinant cRAF were assessed in vitro using time-resolved fluorescence resonance energy transfer (TR-FRET) assay. The assay was performed according to the kit instructions. Briefly, the cRAF enzyme (BPS Bioscience, cat #40008) was diluted to 0.027 ng/μL using the 1× kinase buffer A (Life Tech, cat #PV6135, 5× dilution with H2O); the Fluorescein labeled-MAP2K1 (Life Tech, Cat #PV4812) was diluted to 0.5 μM; ATP (Life Tech, cat #PV3227) was diluted to 20 μM; 2.54, of each diluted reagent was added to a 384-well plate (PerkinElmer, ProxiPlate-384 Plus, 6008280) and mixed together; 2.54, serial diluted compound were added into the mixture. 104, 400-fold diluted LanthaScreen Tb-pMAP2K1 (pSer217/221) antibody (Life Tech, cat #PV4817) was then added to each kinase reaction. The reactions were incubated at Room Temperature for 1 hour. The plate was then read on PHERAstar FSX using 340/490/520 module. Inhibition data were calculated by comparison to vehicle control wells for 0% inhibition and non-stimulated control wells for 100% inhibition. Dose response curves were then generated to determine the concentration required to suppress 50% of enzymatic response (IC50) as derived by non-linear regression analysis using GraphPad Prism.
For orientation: Time-resolved FRET reads energy transfer from a long-lived donor to a nearby acceptor.

The target in a further test is T1, human recombinant BRAF (Homo sapiens, UniProt P15056).
T1 construct: purchased BPS Bioscience 40065
T1 sequence (P15056 whole entry): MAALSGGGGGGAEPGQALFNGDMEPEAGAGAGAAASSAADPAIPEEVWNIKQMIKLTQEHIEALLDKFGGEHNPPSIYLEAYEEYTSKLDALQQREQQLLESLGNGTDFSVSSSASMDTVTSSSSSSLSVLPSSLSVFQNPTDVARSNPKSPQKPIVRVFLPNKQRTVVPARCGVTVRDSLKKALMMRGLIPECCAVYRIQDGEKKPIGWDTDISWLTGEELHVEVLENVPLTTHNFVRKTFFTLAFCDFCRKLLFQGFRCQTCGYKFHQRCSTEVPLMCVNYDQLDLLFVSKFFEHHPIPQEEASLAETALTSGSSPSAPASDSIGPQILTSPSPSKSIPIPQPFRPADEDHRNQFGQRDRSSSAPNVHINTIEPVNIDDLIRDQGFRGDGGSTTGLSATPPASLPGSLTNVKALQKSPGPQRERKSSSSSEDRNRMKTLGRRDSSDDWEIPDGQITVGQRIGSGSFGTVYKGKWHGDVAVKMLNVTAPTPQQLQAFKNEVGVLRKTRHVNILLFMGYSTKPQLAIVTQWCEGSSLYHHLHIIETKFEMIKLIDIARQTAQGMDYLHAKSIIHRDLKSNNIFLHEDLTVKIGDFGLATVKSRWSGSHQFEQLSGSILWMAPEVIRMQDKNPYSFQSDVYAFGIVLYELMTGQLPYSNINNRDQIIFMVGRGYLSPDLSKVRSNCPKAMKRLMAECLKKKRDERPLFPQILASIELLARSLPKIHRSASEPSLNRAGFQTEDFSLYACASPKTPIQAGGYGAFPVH
Description: BRAF^WT Inhibition Assay (TR-FRET). Type of test: biochemical. How it is done: as §1, with “BRAF” for “cRAF”, “#40065)” for “#40008)”

Test [1] addresses T2, human recombinant V600E mutant BRAF (Homo sapiens, UniProt P15056, V600E).
T2 construct: purchased BPS Bioscience 40533
Nature of the test: BRAF^V600E Inhibition Assay (TR-FRET). The test is classed as biochemical. The protocol: Activity of human recombinant V600E mutant BRAF were assessed in vitro using time-resolved fluorescence resonance energy transfer (TR-FRET) assay. The assay was performed according to the kit instructions. Briefly, the V600E mutant BRAF enzyme (BPS Bioscience, cat #40533) was diluted to 0.027 ng/μL using the 1× kinase buffer A (Life Tech, cat #PV6135, 5× dilution with H2O); the Fluorescein labeled-MAP2K1 (Life Tech, Cat #PV4812) was diluted to 0.5 μM; ATP (Life Tech, cat #PV3227) was diluted to 20 μM; 2.5 μl of each diluted reagent was added to a 384-well (PerkinElmer, ProxiPlate-384 Plus, 6008280) plate and mixed together; 2.54, serial diluted compounds were added into the mixture. 104, 400-fold diluted LanthaScreen Tb-pMAP2K1 (pSer217/221) antibody (Life Tech, cat #PV4817) was then added to each kinase reaction. The reactions were incubated at Room Temperature for 1 hour. The plate was then read on PHERAstar FSX using 340/490/520 module. Inhibition data were calculated by comparison to vehicle control wells for 0% inhibition and non-stimulated control wells for 100% inhibition. Dose response curves were then generated to determine the concentration required to suppress 50% of enzymatic response (IC50) as derived by non-linear regression analysis using GraphPad Prism.

For test [2], the system named is NCI-H358 (KRAS^G12C) non-small cell lung cancer cell. Nature of the test: NCI-H358 Cancer Cell Growth Inhibition Assay (CellTiter-Glo). The note with it: for GI50: Homo sapiens, 72 h, NCI-H358 cells, incubated for 3 days, CellTiter-Glo. The test is classed as cell-based, human. The protocol:
Activity of human NCI-H358 (KRAS^G12C) non-small cell lung cancer cell growth inhibition was assessed in vitro using CellTiter-Glo® Luminescent Cell Viability Assay. The assay was performed according to the kit instructions (Promega, cat #G7570). Briefly, NCI-H358 cells (ATCC, #CRL-5807) were seeded in 96-well plates at a density of 2,500 cells/well in and cells were cultured overnight in a humidified, 5% CO2 cell culture incubator at 37° C. 10 μL serial diluted compounds were added into each cell-culture well and incubated for 3 days. 100 μL CellTiter-Glo® Reagent was added into each well. The reactions were incubated at Room Temperature for 10 minutes, and luminescence signals were recorded on a Tecan Luminescence Plate Reader. Inhibition data were calculated by comparison to vehicle control wells for 0% inhibition and non-stimulated control wells for 100% inhibition. Dose response curves were then generated to determine the concentration required to suppress 50% of cellular growth response (GI50) as derived by non-linear regression analysis using GraphPad Prism.
(In general: Cellular ATP, detected with luciferase, serves as a proxy for viable cell number.)

Test [3] concerns A375 (BRAF^V600E) malignant melanoma cell. Nature of the test: A375 Cell Growth Inhibition Assay (CellTiter-Glo). The test is classed as cell-based, human. The note with it: for GI50: Homo sapiens, A-375, 72 h, A375 cells, incubated for 3 days, CellTiter-Glo. How it is done:
Activity of human A375 (BRAF^V600E) malignant melanoma cell growth inhibition was assessed in vitro using CellTiter-Glo® Luminescent Cell Viability Assay. The assay was performed according to the kit instructions (Promega, cat #G7570). Briefly, A375 cells (ATCC, #CRL-1619™) were seeded in 96-well plates at a density of 2,500 cells/well in 90 and cells were cultured overnight in a humidified, 5% CO2 cell culture incubator at 37° C. 10 μL serial diluted compounds were added into each cell-culture well and incubated for 3 days. […] Reagent was added into each well. The reactions were incubated at Room Temperature for 10 minutes, and luminescence signals were recorded on a Tecan Luminescence Plate Reader. Inhibition data were calculated by comparison to vehicle control wells for 0% inhibition and non-stimulated control wells for 100% inhibition. Dose response curves were then generated to determine the concentration required to suppress 50% of cellular growth response (GI50) as derived by non-linear regression analysis using GraphPad Prism.

The test system of test [4] is Calu6 (KRAS^Q16K) cancer cell. Description: Calu6 Cancer Cell Growth Inhibition Assay (CellTiter-Glo). The test is classed as cell-based, human. The note with it: for GI50: Homo sapiens, Calu-6, 72 h, Calu6 cells, incubated for 3 days, CellTiter-Glo. The protocol:
Activity of human Calu6 (KRAS^Q16K) cancer cell growth inhibition was assessed in vitro using CellTiter-Glo® Luminescent Cell Viability Assay. The assay was performed according to the kit instructions (Promega, cat #G7570). Briefly, Calu6 cells (ATCC, #HTB-56™) were seeded in 96-well plates at a density of 2,500 cells/well in 90 and cells were cultured overnight in a humidified, 5% CO2 cell culture incubator at 37° C. 10 μL serial diluted compounds were added into each cell-culture well and incubated for 3 days. 100 μL CellTiter-Glo® Reagent was added into each well. The reactions were incubated at Room Temperature for 10 minutes, and luminescence signals were recorded on a Tecan Luminescence Plate Reader. Inhibition data were calculated by comparison to vehicle control wells for 0% inhibition and non-stimulated control wells for 100% inhibition. Dose response curves were then generated to determine the concentration required to suppress 50% of cellular growth response (GI50) as derived by non-linear regression analysis using GraphPad Prism.

The next test has as its system RAF Kinase. Conditions: background statement on the reference compound; cited from earlier work.

T2 sequence (P15056 whole entry V600E): as the sequence (P15056 whole entry) above, with V600E counted along it
human recombinant cRAF, sequence (P04049 whole entry Y340D/Y341D, form open): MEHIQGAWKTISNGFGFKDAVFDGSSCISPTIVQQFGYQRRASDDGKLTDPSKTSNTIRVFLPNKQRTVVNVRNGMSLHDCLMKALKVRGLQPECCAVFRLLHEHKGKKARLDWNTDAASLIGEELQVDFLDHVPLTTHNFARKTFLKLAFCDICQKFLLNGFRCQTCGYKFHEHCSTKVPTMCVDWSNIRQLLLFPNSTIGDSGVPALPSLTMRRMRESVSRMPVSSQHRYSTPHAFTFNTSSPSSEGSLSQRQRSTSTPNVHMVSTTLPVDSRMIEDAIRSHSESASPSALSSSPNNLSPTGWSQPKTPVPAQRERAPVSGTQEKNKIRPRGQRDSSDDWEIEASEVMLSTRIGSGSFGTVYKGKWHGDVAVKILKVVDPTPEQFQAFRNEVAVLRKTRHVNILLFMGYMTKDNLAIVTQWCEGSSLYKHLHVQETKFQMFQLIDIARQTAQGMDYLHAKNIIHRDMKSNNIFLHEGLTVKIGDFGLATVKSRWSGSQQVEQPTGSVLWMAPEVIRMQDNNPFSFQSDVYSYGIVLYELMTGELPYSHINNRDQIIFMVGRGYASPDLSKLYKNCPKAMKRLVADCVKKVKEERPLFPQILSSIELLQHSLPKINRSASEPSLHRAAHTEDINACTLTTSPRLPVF

What is called IC50 is the concentration that inhibits the measured activity by half. As a reminder, the GI50 is the concentration at which growth is held to half of that of the control. A lower GI50 goes with more potent growth inhibition. On to `Cc1ccc(NC(=O)c2ccc3c(c2)OC(F)(F)O3)cc1-c1cc(OCCO)nc(N2CCOCC2)c1` [Example 1, 2,2-difluoro-N-(3-(2-(2-hydroxyethoxy)-6-morpholinopyridin-4-yl)-4-methylphenyl)benzo[d][1,3]dioxole-5-carboxamide], for which the IC50 on human recombinant cRAF is 15 nM; on human recombinant BRAF, 87 nM; in test [1], 32.5 nM. Also, the “cellular potency, H358” value in test [2] (H358 cancer cell line) is recorded as “excellent cellular potency”. The “cell growth inhibition in H358 cancer line compared to LXH254” value in test [2] (H358 cancer line, compared to LXH254) is on record as “better or similar cell growth inhibition”. In addition, the GI50 came to 480 nM in test [2], 150 nM in test [3] and 64 nM in test [4]. Further, in test [3] (A375 cancer cell line), the “cellular potency, A375” value was “excellent cellular potency”. In test [4] (Calu6 cancer cell line), the “cellular potency, Calu6” value was “excellent cellular potency”.
In the case of `Cc1ccc(NC(=O)c2ccnc(C(F)(F)F)c2)cc1-c1cc(OCCO)nc(N2CCOCC2)c1` [LXH254, reference compound], the results for the IC50 (at human recombinant cRAF; on human recombinant BRAF; in test [1]) were 13 nM, 38 nM and 43 nM, respectively. The GI50 in test [2] was 3000 nM; in test [3], 890 nM; in test [4], 920 nM. Further, in the test with RAF Kinase, the “potency for bRAF and cRAF” value is listed as “nanomolar potency”.
